What follows are compounds tested against human MDM2 protein (amino acids 2-188) (Homo sapiens (Human), UniProt Q00987) (assay: TR-FRET assay, p53-MDM2 Assay 2 (modified)). Conditions: TR-FRET; 0.1 nM MDM2, 0.1 nM Europium labeled streptavidin, Tecan genios Pro reader; read-out: IC50 p53-MDM2 Assay 2.
Assay type: binding
Summary of the method: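 IC50 values were curve-fitted from the time-resolved 665/620 nm emission ratio after 340 nm excitation. The assay combined 0.625 nM europium-streptavidin donor with 1.25 nM C-terminally biotinylated MDM2 2–188 (15 min, RT), followed by 15 min with 10 nM Cy5-labeled p53 18–26 acceptor peptide.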

Chain of human MDM2 protein (amino acids 2-188) (Q00987 2-188): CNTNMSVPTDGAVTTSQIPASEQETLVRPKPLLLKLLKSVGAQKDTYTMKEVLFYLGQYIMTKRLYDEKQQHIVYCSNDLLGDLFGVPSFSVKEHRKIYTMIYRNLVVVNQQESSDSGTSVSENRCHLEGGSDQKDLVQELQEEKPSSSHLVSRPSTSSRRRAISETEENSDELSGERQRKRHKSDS

SMILES	IC50
COc1ncc(-c2cc3c(n2C(C)C)C(c2ccc(Cl)cc2)N([C@H]2CC[C@H](OC)CC2)C3=O)c(OC)n1 (stereo partly drawn) [Example 143, 6-(4-Chloro-phenyl)-2-(2,4-dimethoxy-pyrimidin-5-yl)-1-isopropyl-5-(trans-4-methoxy-cyclohexyl)-5,6-dihydro-1H-pyrrolo[3,4-b]pyrrol-4-one]	1.69 nM
COc1ncc(-c2cc3c(n2C(C)C)C(c2ccc(Cl)cc2C)N(c2cc(Cl)c(=O)n(C)c2)C3=O)c(OC)n1 (stereo not drawn) [Example 146, 5-(5-Chloro-1-methyl-6-oxo-1,6-dihydro-pyridin-3-yl)-6-(4-chloro-2-methyl-phenyl)-2-(2,4-dimethoxy-pyrimidin-5-yl)-1-isopropyl-5,6-dihydro-1H-pyrrolo[3,4-b]pyrrol-4-one]	0.216 nM
COc1nc(N(C)C)ncc1-c1cc2c(n1C(C)C)C(c1ccc(Cl)cc1C)N(c1cc(Cl)c(=O)n(C)c1)C2=O (stereo not drawn) [Example 147, 5-(5-Chloro-1-methyl-6-oxo-1,6-dihydro-pyridin-3-yl)-6-(4-chloro-2-methyl-phenyl)-2-(2-dimethylamino-4-methoxy-pyrimidin-5-yl)-1-isopropyl-5,6-dihydro-1H-pyrrolo[3,4-b]pyrrol-4-one]	0.164 nM
COc1nc(N)ncc1-c1cc2c(n1C(C)C)C(c1ccc(Cl)cc1C)N(c1cc(Cl)c(=O)n(C)c1)C2=O (stereo not drawn) [Example 148, 2-(2-Amino-4-methoxy-pyrimidin-5-yl)-5-(5-chloro-1-methyl-6-oxo-1,6-dihydro-pyridin-3-yl)-6-(4-chloro-2-methyl-phenyl)-1-isopropyl-5,6-dihydro-1H-pyrrolo[3,4-b]pyrrol-4-one]	0.592 nM
CNc1ncc(-c2cc3c(n2C(C)C)C(c2ccc(Cl)cc2C)N(c2cc(Cl)c(=O)n(C)c2)C3=O)c(OC)n1 (stereo not drawn) [Example 151, 5-(5-Chloro-1-methyl-6-oxo-1,6-dihydro-pyridin-3-yl)-6-(4-chloro-2-methyl-phenyl)-1-isopropyl-2-(4-methoxy-2-methylamino-pyrimidin-5-yl)-5,6-dihydro-1H-pyrrolo[3,4-b]pyrrol-4-one]	0.243 nM
COc1ncc(-c2cc3c(n2C(C)C)C(c2ccc(C#N)cc2)N(c2cc(Cl)c(=O)n(C)c2)C3=O)c(OC)n1 (stereo not drawn) [Example 153, 4-[5-(5-Chloro-1-methyl-6-oxo-1,6-dihydro-pyridin-3-yl)-2-(2,4-dimethoxy-pyrimidin-5-yl)-1-isopropyl-4-oxo-1,4,5,6-tetrahydro-pyrrolo[3,4-b]pyrrol-6-yl]-benzonitrile]	0.422 nM
COc1nc(N)ncc1-c1cc2c(n1C(C)C)[C@H](c1ccc(C#N)cc1)N(c1cccc(Cl)c1F)C2=O [Example 154, 4-[(S)-2-(2-Amino-4-methoxy-pyrimidin-5-yl)-5-(3-chloro-2-fluoro-phenyl)-1-isopropyl-4-oxo-1,4,5,6-tetrahydro-pyrrolo[3,4-b]pyrrol-6-yl]-benzonitrile]	0.328 nM
COc1nc(N)ncc1-c1cc2c(n1C(C)C)[C@@H](c1ccc(C#N)cc1)N(c1cccc(Cl)c1F)C2=O [Example 155, 4-[(R)-2-(2-Amino-4-methoxy-pyrimidin-5-yl)-5-(3-chloro-2-fluoro-phenyl)-1-isopropyl-4-oxo-1,4,5,6-tetrahydro-pyrrolo[3,4-b]pyrrol-6-yl]-benzonitrile]	43 nM
COc1ncc(-c2cc3c(n2C(C)C)C(c2ccc(C#N)cc2)N(C2CCOCC2)C3=O)c(OC)n1 (stereo not drawn) [Example 157, 4-[2-(2,4-Dimethoxy-pyrimidin-5-yl)-1-isopropyl-4-oxo-5-(tetrahydro-pyran-4-yl)-1,4,5,6-tetrahydro-pyrrolo[3,4-b]pyrrol-6-yl]-benzonitrile]	7.9 nM
COc1nc(N(C)C)ncc1-c1cc2c(n1C(C)C)C(c1ccc(C#N)cc1)N(C1CCOCC1)C2=O (stereo not drawn) [Example 158, 4-[2-(2-Dimethylamino-4-methoxy-pyrimidin-5-yl)-1-isopropyl-4-oxo-5-(tetrahydro-pyran-4-yl)-1,4,5,6-tetrahydro-pyrrolo[3,4-b]pyrrol-6-yl]-benzonitrile]	1.34 nM
COc1nc(N(C)C)ncc1-c1cc2c(n1C(C)C)C(c1ccc(Cl)cc1)N(C1CN(C)C(=O)N(C)C1)C2=O (stereo not drawn) [Example 159, 6-(4-Chloro-phenyl)-2-(2-dimethylamino-4-methoxy-pyrimidin-5-yl)-5-(1,3-dimethyl-2-oxo-hexahydro-pyrimidin-5-yl)-1-isopropyl-5,6-dihydro-1H-pyrrolo[3,4-b]pyrrol-4-one]	0.161 nM
COc1ncc(-c2cc3c(n2C(C)C)[C@H](c2ccc(Cl)cc2C)N(c2cc(Cl)c(=O)n(C)c2)C3=O)c(OC)n1 [Example 160, (S)-5-(5-Chloro-1-methyl-6-oxo-1,6-dihydro-pyridin-3-yl)-6-(4-chloro-2-methyl-phenyl)-2-(2,4-dimethoxy-pyrimidin-5-yl)-1-isopropyl-5,6-dihydro-1H-pyrrolo[3,4-b]pyrrol-4-one]	0.144 nM

Second part, the compound after the results:

IC50	SMILES
0.554 nM	COc1ccccc1-c1cc2c(n1C(C)C)C(c1ccc(Cl)cc1C)N(c1cc(Cl)c(=O)n(C)c1)C2=O (stereo not drawn) [Example 144, 5-(5-Chloro-1-methyl-6-oxo-1,6-dihydro-pyridin-3-yl)-6-(4-chloro-2-methyl-phenyl)-1-isopropyl-2-(2-methoxy-phenyl)-5,6-dihydro-1H-pyrrolo[3,4-b]pyrrol-4-one]
0.187 nM	CNC(=O)c1ccc(OC)c(-c2cc3c(n2C(C)C)C(c2ccc(Cl)cc2C)N(c2cc(Cl)c(=O)n(C)c2)C3=O)c1 (stereo not drawn) [Example 145, 3-[5-(5-Chloro-1-methyl-6-oxo-1,6-dihydro-pyridin-3-yl)-6-(4-chloro-2-methyl-phenyl)-1-isopropyl-4-oxo-1,4,5,6-tetrahydro-pyrrolo[3,4-b]pyrrol-2-yl]-4-methoxy-N-methyl-benzamide]
0.11 nM	COc1cn(C)c(=O)cc1-c1cc2c(n1C(C)C)C(c1ccc(Cl)cc1)N(c1cc(Cl)ccc1C)C2=O (stereo not drawn) [Example 149, 5-(5-Chloro-2-methyl-phenyl)-6-(4-chloro-phenyl)-1-isopropyl-2-(5-methoxy-1-methyl-2-oxo-1,2-dihydro-pyridin-4-yl)-5,6-dihydro-1H-pyrrolo[3,4-b]pyrrol-4-one]
0.254 nM	COc1cn(C)c(=O)cc1-c1cc2c(n1C(C)C)C(c1ccc(Cl)cc1)N(c1cc(Cl)c(=O)n(C)c1)C2=O (stereo not drawn) [Example 150, 5-(5-Chloro-1-methyl-6-oxo-1,6-dihydro-pyridin-3-yl)-6-(4-chloro-phenyl)-1-isopropyl-2-(5-methoxy-1-methyl-2-oxo-1,2-dihydro-pyridin-4-yl)-5,6-dihydro-1H-pyrrolo[3,4-b]pyrrol-4-one]
0.166 nM	CNc1ncc(-c2cc3c(n2C(C)C)C(c2ccc(Cl)cc2)N(c2c[nH]c(=O)c(Cl)c2)C3=O)c(OC)n1 (stereo not drawn) [Example 152, 5-(5-Chloro-6-oxo-1,6-dihydro-pyridin-3-yl)-6-(4-chloro-phenyl)-1-isopropyl-2-(4-methoxy-2-methylamino-pyrimidin-5-yl)-5,6-dihydro-1H-pyrrolo[3,4-b]pyrrol-4-one]
0.122 nM	COc1ncc(-c2cc3c(n2C(C)C)C(c2ccc(Cl)cc2)N(c2cc(Cl)c(=O)n(C)c2F)C3=O)c(OC)n1 (stereo not drawn) [Example 156, 5-(5-Chloro-2-fluoro-1-methyl-6-oxo-1,6-dihydro-pyridin-3-yl)-6-(4-chloro-phenyl)-2-(2,4-dimethoxy-pyrimidin-5-yl)-1-isopropyl-5,6-dihydro-1H-pyrrolo[3,4-b]pyrrol-4-one]

Reference: US9365576B2, “Pyrrolopyrrolidinone compounds” (Novartis AG, priority 2012, dated 2016)
